From publication PMC5618191 (Toxins, 2017)
Read-outs that look alike come from different tables or passages of the source.

How the values were obtained:
[1] = test system: NIH/3T3 murine non-malignant fibroblasts; assay: Cell viability assay (MTT, 72 h); format: cell-based, mouse
Description: (§1) For the cell lines KB-3-1 and SW480 2 × 10^3 cells, for NIH/3T3, CT-26, HaCaT, and GH354 cells 3 × 10^3 cells and for ME-180 and SW620 cells 4 × 10^3 cells were seeded into 96-well pates and incubated at 37 °C (5% CO2) overnight. […] For higher cell confluency, NIH/3T3, CT-26, HaCaT, KB-3-1, and SW480 cells were grown to a cell density of approximately 50–60% before treatment. […] The percentage of viable cells was detected after incubation with 3-(4,5-dimethylthiazol-2-yl)-2,5-diphenyltetrazolium bromide (MTT) at 37 °C for 1–4 h, depending on the cell line, according to the user manual (EZ4U, Biomedica, Vienna, Austria). […] All experiments were conducted using full-growth media with 10% FBS in triplicate and repeated three times. The cell confluency was analyzed by Image J 1.50i (NIH, New York, NY, USA).

[2] = test system: CT-26 murine colon carcinoma cells; assay: Cell viability assay (MTT, 72 h); format: cell-based, mouse
Description: as §1

[3] = NIH/3T3, sparse (5–10% confluency), 72 h
[4] = CT-26, sparse (5–10% confluency), 72 h

Substance: beauvericin
- Viability of non-malignant cells ([1]; 1 µM, higher density (50–60%), murine models): no reduction of viability
- IC50 ([1]; NIH-3T3, higher density (50–60% confluency), 72 h, read-out: IC50 value): 9400 nM
- Mean IC25 ± SD [1, 3]: 1200 ± 600 nM
- Mean IC75 ± SD [1, 3]: 6500 ± 700 nM
- IC50 ([1]; NIH/3T3, sparse (5–10% confluency), 72 h, read-out: Mean IC50 ± SD): 3100 ± 200 nM
- IC50 higher for non-malignant NIH/3T3 as compared to CT-26 ([1]; sparse conditions): 1.7 fold
- IC75 higher for non-malignant NIH/3T3 as compared to CT-26 ([1]; sparse conditions): 2.4 fold
- Tumor cell viability ([2]; 0.5 µM, higher density (50–60%), murine models): significantly reduced
- Mean IC25 ± SD [2, 4]: 1400 ± 200 nM
- Mean IC75 ± SD [2, 4]: 2700 ± 500 nM
- IC50 ([2]; CT-26, sparse (5–10% confluency), 72 h, read-out: Mean IC50 ± SD): 1800 ± 200 nM
